Assay results as given in US7919622B2, “Intermediates for fluorinated tetrabenazine carbinol compounds imaging agents and probes” (priority 2007, dated 2011).

Target: T1, VMAT-2 (Homo sapiens, UniProt Q05940)
T1 construct: Novascreen Biosciences Corporation (contract assay provider) protocol Cat. No. 100-0751
Test: VMAT-2 binding affinity measurement (Novascreen protocol Cat. No. 100-0751)
Details: for Ki: VMAT-2 binding affinity, reserpine value is the average of two Ki values; for binding affinity for VMAT-2 (in words): relative to reserpine and DTBZ controls
Description: Novascreen, Inc. is a commercial provider of biological assays for the pharmaceutical industry. […] In addition, the binding constants Ki expressed in nano-molar (nM) concentration units indicate a very high affinity of the fluoroalkyl tetrabenazine carbinol compounds of the present invention for the VMAT-2 biomarker.

T1 sequence (Q05940 whole entry, species assumed): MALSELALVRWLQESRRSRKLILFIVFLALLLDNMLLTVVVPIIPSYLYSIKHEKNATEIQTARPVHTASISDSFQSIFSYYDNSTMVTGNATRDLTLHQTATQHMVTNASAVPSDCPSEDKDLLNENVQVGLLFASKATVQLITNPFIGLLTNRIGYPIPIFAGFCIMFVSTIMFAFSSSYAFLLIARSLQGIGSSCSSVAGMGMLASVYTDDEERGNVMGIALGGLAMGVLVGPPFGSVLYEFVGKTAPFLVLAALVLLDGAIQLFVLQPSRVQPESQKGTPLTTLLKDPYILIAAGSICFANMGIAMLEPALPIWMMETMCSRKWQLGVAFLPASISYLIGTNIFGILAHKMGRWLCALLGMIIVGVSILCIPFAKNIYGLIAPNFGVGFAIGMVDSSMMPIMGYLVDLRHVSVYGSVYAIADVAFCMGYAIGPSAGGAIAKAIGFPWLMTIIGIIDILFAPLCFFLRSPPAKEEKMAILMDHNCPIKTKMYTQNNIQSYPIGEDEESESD

| Ki [nM] | binding affinity for VMAT-2 (in words) | SMILES |
| --- | --- | --- |
| 19 | very high binding affinity | COc1cc2c(cc1OC)[C@H]1C[C@](O)(C#CCF)[C@H](CC(C)C)CN1CC2 [Compound 17] |
| 19 | very high binding affinity | COc1cc2c(cc1OC)[C@H]1C[C@@](C#CCF)(OC(C)=O)[C@H](CC(C)C)CN1CC2 [Compound 16, (2R,3R,11bR)-2-(3-fluoroprop-1-ynyl)-3-isobutyl-9,10-dimethoxy-2,3,4,6,7,11b-hexahydro-1-H-pyrido[2,1-α]isoquinolin-2-yl acetate] |
